Experimental data published in article PMC9120017, “Inhibition mechanism of the chloride channel TMEM16A by the pore blocker 1PBC” (Nature Communications, 2022).
Like-named read-outs stand apart in the source and are kept apart here.

Target: T1, mouse TMEM16A mutant I512A (Mus musculus, UniProt Q8BHY3, I512A)
T1 construct: expressed in transfected cells; host or cells: HEK293T
T1 sequence (Q8BHY3 1-960 I512A): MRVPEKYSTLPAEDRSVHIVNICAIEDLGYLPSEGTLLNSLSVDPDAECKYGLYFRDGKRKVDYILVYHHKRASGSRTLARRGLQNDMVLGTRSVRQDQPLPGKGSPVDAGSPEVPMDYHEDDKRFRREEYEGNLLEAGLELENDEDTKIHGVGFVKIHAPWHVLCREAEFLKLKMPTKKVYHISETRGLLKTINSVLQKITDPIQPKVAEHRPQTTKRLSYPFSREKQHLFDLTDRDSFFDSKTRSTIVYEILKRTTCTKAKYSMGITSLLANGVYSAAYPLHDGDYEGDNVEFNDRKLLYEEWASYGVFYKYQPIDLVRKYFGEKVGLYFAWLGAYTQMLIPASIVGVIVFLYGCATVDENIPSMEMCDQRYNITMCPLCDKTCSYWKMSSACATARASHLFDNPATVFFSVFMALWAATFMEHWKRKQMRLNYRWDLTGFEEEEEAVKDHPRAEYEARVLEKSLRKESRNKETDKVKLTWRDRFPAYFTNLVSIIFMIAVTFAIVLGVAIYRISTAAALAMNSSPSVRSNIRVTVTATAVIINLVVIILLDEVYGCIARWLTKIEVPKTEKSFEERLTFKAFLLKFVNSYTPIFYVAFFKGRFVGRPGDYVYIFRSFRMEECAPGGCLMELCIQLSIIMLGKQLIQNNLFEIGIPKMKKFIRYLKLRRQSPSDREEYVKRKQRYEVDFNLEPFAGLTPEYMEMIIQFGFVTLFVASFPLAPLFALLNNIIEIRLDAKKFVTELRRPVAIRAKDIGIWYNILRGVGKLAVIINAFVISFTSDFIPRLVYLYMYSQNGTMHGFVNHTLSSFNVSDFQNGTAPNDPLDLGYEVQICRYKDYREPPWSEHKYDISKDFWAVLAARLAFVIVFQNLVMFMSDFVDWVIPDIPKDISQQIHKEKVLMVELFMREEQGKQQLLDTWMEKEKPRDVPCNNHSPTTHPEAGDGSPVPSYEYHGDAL
Experiment: Inside-out patch recording of 1PBC block, mutant I512A
Format: cell-based
Conditions: for remaining activity at 30 µM: 1PBC 30; for remaining activity at 30 µM / remaining activity at 100 µM: read-out: fraction of unblocked current; for remaining activity at 100 µM: 1PBC 100
Method: HEK293T cells (ATCC CRL-1573) were maintained in Dulbecco’s modified Eagle’s medium (DMEM; Sigma-Aldrich) supplemented with 10 U ml^−1 penicillin, 0.1 mg ml^−1 streptomycin (Sigma-Aldrich), 2 mM L-glutamine (Sigma-Aldrich), and 10% FBS (Sigma-Aldrich) in a humidified atmosphere containing 5% CO2 at 37 °C. HEK293S GnTI^− cells (ATCC CRL-3022) were maintained in HyClone HyCell TransFx-H medium (GE Healthcare) supplemented with 10 U ml^−1 penicillin, 0.1 mg ml^−1 streptomycin, 4 mM L-glutamine, 0.15% poloxamer 188 (Sigma-Aldrich), and 1% FBS in an atmosphere containing 5% CO2 at 185 rpm at 37 °C. The ac splice variant of mouse TMEM16A (UniProt ID: Q8BHY3), mouse TMEM16B (UniProt ID: Q8CFW1), or mouse TMEM16F (UniProt ID: Q6P9J9) bearing a 3C cleavage site, a Venus YFP, a Myc tag, and a Streptavidin-binding peptide (SBP) downstream of the open reading frame in a modified pcDNA3.1 vector (Invitrogen) were used as described previously[21],[31]. Mutations were introduced using a modified QuikChange method[58] and were verified by sequencing.
HEK293T cells were transfected with 3–4 μg DNA per 6 cm Petri dish using the calcium phosphate co-precipitation method and were used within 24–96 h after transfection. Recordings were performed on inside-out patches excised from HEK293T cells expressing the construct of interest. Patch pipettes were pulled from borosilicate glass capillaries (O.D. 1.5 mm, I.D. 0.86 mm, Sutter Instrument) and were fire-polished with a microforge (Narishige) before use. Pipette resistance was typically 3–8 MΩ when filled with the recording solutions detailed below. Seal resistance was typically 4 GΩ or higher. Voltage-clamp recordings were made using Axopatch 200B, Digidata 1550, and Clampex 10.7 (Molecular Devices). Analog signals were filtered with the in-built 4-pole Bessel filter at 10 kHz and were digitized at 20 kHz. Solution exchange was achieved using a gravity-fed system through a theta glass pipette mounted on an ultra-fast piezo-driven stepper (Siskiyou). […] All recordings were performed at 20 °C.
A symmetrical ionic condition was used throughout. Stock solution with Ca^2+-EGTA contained 150 mM NaCl, 5.99 mM Ca(OH)2, 5 mM EGTA, and 10 mM HEPES at pH 7.40. Stock solution with EGTA contained 150 mM NaCl, 5 mM EGTA, and 10 mM HEPES at pH 7.40. Free Ca^2+ concentrations were adjusted by mixing the stock solutions at the required ratios calculated using the WEBMAXC program (http://web.stanford.edu/~cpatton/webmaxcS.htm). Patch pipettes were filled with the stock solution with Ca^2+-EGTA, which has a free Ca^2+ concentration of 1 mM. 1PBC (ChemBridge) stock was reconstituted in anhydrous DMSO (Sigma-Aldrich) at 100 mM and stored at −20 °C. Working solutions with 1PBC were prepared by serial dilution. Unless otherwise stated, experiments were performed at a saturating Ca^2+ concentration as shown in Supplementary Table 1 and the primary data were corrected for current rundown as described previously[21],[25].
Concentration-response relations, obtained from the ratio of the I-V plots before and after the application of the blocker, were fitted to the Hill equation,1 I/Imax=1/1+IC50/[blocker]^h where I/Imax is the normalized current responses, IC50 defines the concentration at which inhibition is at its half-maximum, and h is the Hill coefficient.

SMILES: N#Cc1c(C(F)(F)F)cc(O)n2c1nc1ccccc12 [1PBC]
- remaining activity at 30 µM (-60 mV): 62.3%
- remaining activity at 30 µM (-80 mV): 65.6%
- remaining activity at 30 µM (-100 mV): 68.2%
- remaining activity at 30 µM (-120 mV): 70.8%
- remaining activity at 30 µM (-140 mV): 72%
- remaining activity at 100 µM (0 mV): 23.3%
- remaining activity at 100 µM (20 mV): 19.1%
- remaining activity at 100 µM (40 mV): 18.1%
- remaining activity at 100 µM (60 mV): 15.6%
- remaining activity at 100 µM (80 mV): 14%
- remaining activity at 100 µM (100 mV): 13.1%
- remaining activity at 100 µM (120 mV): 12.2%
- remaining activity at 100 µM (140 mV): 12.1%
- remaining activity at 100 µM (-20 mV): 27.5%
- remaining activity at 100 µM (-40 mV): 29.4%
- remaining activity at 100 µM (-60 mV): 32.8%
- remaining activity at 100 µM (-80 mV): 36%
- remaining activity at 100 µM (-100 mV): 39.7%
- remaining activity at 100 µM (-120 mV): 42.4%
- remaining activity at 100 µM (-140 mV): 45.3%
- IC50 (20 mV, 2 µM Ca2+): 25.5 µM
- IC50 (40 mV, 2 µM Ca2+): 21.8 µM
- IC50 (60 mV, 2 µM Ca2+): 19 µM
- log-fold IC50 (change of mutant vs WT) (80 mV): 0.8662
- IC50 (80 mV, 2 µM Ca2+): 17 µM
- IC50 (100 mV, 2 µM Ca2+): 15.9 µM
- IC50 (120 mV, 2 µM Ca2+): 15.8 µM
- IC50 (140 mV, 2 µM Ca2+): 16.6 µM
- IC50 (-20 mV, 2 µM Ca2+): 37.1 µM
- IC50 (-40 mV, 2 µM Ca2+): 42.9 µM
- IC50 (-60 mV, 2 µM Ca2+): 50.1 µM
- IC50 (-80 mV, 2 µM Ca2+): 57.9 µM
- IC50 (-100 mV, 2 µM Ca2+): 66.1 µM
- IC50 (-120 mV, 2 µM Ca2+): 73.6 µM
- IC50 (-140 mV, 2 µM Ca2+): 80.9 µM
- IC50 (I512A, V 0 mV): 30.7 µM
- IC50 (I512A, V 20 mV): 25.5 µM
- IC50 (I512A, V 40 mV): 21.8 µM
- IC50 (I512A, V 60 mV): 19 µM
- IC50 (I512A, V 80 mV): 17 µM
- IC50 (I512A, V 100 mV): 15.9 µM
- IC50 (I512A, V 120 mV): 15.8 µM
- IC50 (I512A, V 140 mV): 16.6 µM
- IC50 (I512A, V -20 mV): 37.1 µM
- IC50 (I512A, V -40 mV): 42.9 µM
- IC50 (I512A, V -60 mV): 50.1 µM
- IC50 (I512A, V -80 mV): 57.9 µM
- IC50 (I512A, V -100 mV): 66.1 µM
- IC50 (I512A, V -120 mV): 73.6 µM
- IC50 (I512A, V -140 mV): 80.9 µM
